Inhibition data for ten molecules are collected here from patent US8486965B2, “Pyrrolo[2,3-b]pyridine derivative and use thereof for treatment of cancer” (Takeda Pharmaceutical Company Limited, priority 2009, dated 2013).

A word on the inhibition: it is the drop in the measured response relative to a control, in per cent.

Each structure is given as a SMILES string.

The subject of the assay is Hedgehog signal transduction system (Smo). The assay can be described thus: Gli reporter luciferase assay in NIH-3T3/Gli reporter cells stimulated with mouse Shh-N end fragment. Type of assay: cell-based. As to conditions: NIH3T3; 1 μM compound; NIH-3T3/Gli reporter cells with mouse Shh-N end fragment culture supernatant, 48 hr; luciferase activity, control without compound as 100; read-out: inhibition rate (%) at 1 μM. The source says: Inhibition of the Hedgehog signal transduction system can be measured, for example, by quantifying a decrease in the expression level of a reporter gene connected to the downstream of the Gli binding site based on the fluorescence intensity according to the following Experimental Example 1. Alternatively, it can be measured by quantifying the expression of Gli-1 mRNA in a cell extract by quantitative PCR method and the like. A compound that inhibits Hedgehog signal targets Smo, which can be confirmed, for example, by binding fluorescence-labeled Cyclopamine and a test compound to cells expressing Smo, measuring the fluorescence level of the cell, and comparing the value with that without addition of a test compound to find a decrease.
Gli reporter plasmid was constructed by inserting 8×Gli-binding site and chicken δ-crystalline promoter into the upstream of luc+ of pGL3 (Promega).
prepared in reference to the base sequence described in GenBank accession No.; X02187, and chicken genome DNA (Clontech) as a template. PCR reaction was performed using Pfu Turbo (Stratagene) and following the attached protocol. The obtained 108 bp fragment was digested with restriction enzymes BglII and HindIII, and inserted into BglII-HindIII site of pGL3 to give plasmid pGL3/δ-cry promoter.
As 8× Gli-binding site, a sequence containing eight 9-bp Gli bound consensus sequences (GACCACCCA) described in Yoon et al., J. Biol. Chem., vol. 273, pages 3496-3501 (1998) was prepared from synthetic DNA. That is, two synthetic DNAs,
were heat treated at 95° C. for 2 minutes, and incubated at 37° C. for 1 hr for annealing to give a double stranded DNA of the above-mentioned two synthetic DNAs. The obtained double stranded DNA was digested with restriction enzymes BglII and KpnI, and the obtained DNA fragment was inserted into BglII-KpnI site of pGL3/δ-cry promoter to construct plasmid pGL3/δ-cry promoter, 8× Gli binding site, i.e., Gli reporter plasmid. 2. Construction of Plasmid for Expression of Mouse Shh-N End Fragment
As a material for construction of plasmid for Shh-N end fragment expression, mouse Shh cDNA was cloned at first.
The mouse Shh cDNA was cloned by Nested PCR method using mouse 11-day fetus cDNA (Clontech) as a template. The primer sequence was prepared in reference to the base sequence described in GenBank accession No.; NM_009170.
Using the mouse Shh cDNA sequence obtained as mentioned above as a template, a partial cDNA sequence wherein stop codon (TGA) was added to 3′-terminal of cDNA sequence encoding 1st to 198th amino acid sequence of mouse Shh was obtained by PCR method. As the primer set,
In the manner mentioned above, a plasmid for mouse Shh-N end fragment expression, pcDNA3.1/mShh-N, was constructed.
HEK293 cells were grown in D-MEM medium (Invitrogen) containing 10% fetal bovine serum in a 10 cm dish and pcDNA3.1/mShh-N was introduced into the cells using FuGENE6 (Roche Applied Science). Thereafter, the HEK293 cells were cultured in a carbon dioxide gas incubator at 37° C. for 24 hours, and the medium was exchanged with D-MEM medium (Invitrogen) containing 2% fetal bovine serum. After culturing for 48 hr, culture supernatant containing recombinant type mouse Shh-N end fragment was obtained by filtration using a filter ([…]).
Using D-MEM (Invitrogen) containing 10% fetal bovine serum, expression plasmid pcDNA3:1 and Gli reporter plasmid (pGL3/δ-cry promoter, 8× Gli binding site) produced by the method of Experimental Example 1 were introduced into NIH-3T3 cells grown in a 10 cm dish by the use of FuGENE6 (Roche Applied Science).
After culture for 24 hr, the cells were recovered, suspended in D-MEM medium containing 10% fetal bovine serum and supplemented with Geneticin (Life Technologies Oriental, Inc.) to a final concentration of 500 μg/ml, diluted to 10^4 cells/ml, plated on a 96 well plate, and cultured in a carbon dioxide gas incubator at 37° C. to give Geneticin resistant transformed cell line. […]
On to `CCc1nc2c(cc1NC(=O)c1nccs1)c(OCC(F)(F)F)c(C(=O)NC1CCN(C(=O)CO)CC1)n2C` [Example 69, 6-ethyl-N-[1-(hydroxyacetyl)piperidin-4-yl]-1-methyl-5-[(1,3-thiazol-2-ylcarbonyl)amino]-3-(2,2,2-trifluoroethoxy)-1H-pyrrolo[2,3-b]pyridine-2-carboxamide], for which the inhibition at 1 µM was determined as 99%.
With `Cc1cc2c(cc1NC(=O)c1ccccc1)c(OCC(F)(F)F)c(C(=O)NC1CCN(C(=O)CO)CC1)n2C` [Example 67, N-[1-(hydroxyacetyl)piperidin-4-yl]-1,6-dimethyl-5-[(phenylcarbonyl)amino]-3-(2,2,2-trifluoroethoxy)-1H-indole-2-carboxamide], the inhibition at 1 µM was determined as 97%.
In the case of `CCc1nc2c(cc1NC(=O)c1ccccc1)c(OCC(F)(F)F)c(C(=O)NC1CCN(C(=O)CO)CC1)n2C` [Example 7, 6-ethyl-N-[1-(hydroxyacetyl)piperidin-4-yl]-1-methyl-5-[(phenylcarbonyl)amino]-3-(2,2,2-trifluoroethoxy)-1H-pyrrolo[2,3-b]pyridine-2-carboxamide], the inhibition at 1 µM was 96%.
Regarding `CCc1cc2c(nc1NC(=O)c1ccccc1)c(OC(C)C)c(C(=O)NC1CCN(C(=O)CO)CC1)n2C` [Example 130, 6-ethyl-N-[1-(hydroxyacetyl)piperidin-4-yl]-1-methyl-3-(1-methylethoxy)-5-[(phenylcarbonyl)amino]-1H-pyrrolo[3,2-b]pyridine-2-carboxamide], the inhibition at 1 µM was 84%.
With `CCc1nc2c(cc1NC(=O)c1cc(C)nn1C)c(OCC(F)(F)F)c(C(=O)NC1CCN(C(=O)CO)CC1)n2C` [Example 57, 5-{[(1,3-dimethyl-1H-pyrazol-5-yl)carbonyl]amino}-6-ethyl-N-[1-(hydroxyacetyl)piperidin-4-yl]-1-methyl-3-(2,2,2-trifluoroethoxy)-1H-pyrrolo[2,3-b]pyridine-2-carboxamide], the inhibition at 1 µM was 99%.
Take `CCc1nc2c(cc1NC(=O)c1cccc(F)c1)c(OCC(F)(F)F)c(C(=O)NC1CCN(C(=O)CO)CC1)n2C` [Example 30, 6-ethyl-5-{[(3-fluorophenyl)carbonyl]amino}-N-[1-(hydroxyacetyl)piperidin-4-yl]-1-methyl-3-(2,2,2-trifluoroethoxy)-1H-pyrrolo[2,3-b]pyridine-2-carboxamide]: the inhibition at 1 µM worked out at 97%.
The same measure for `CCc1cc2sc(C(=O)NC3CCN(C(=O)CO)CC3)c(OC(C)C)c2cc1NC(=O)c1ccccc1` [Example 151, 6-ethyl-N-[1-(hydroxyacetyl)piperidin-4-yl]-3-(1-methylethoxy)-5-[(phenylcarbonyl)amino]-1-benzothiophene-2-carboxamide]: 98%; for `CCc1nc2c(cc1NC(=O)c1cscn1)c(OCC(F)(F)F)c(C(=O)NC1CCN(C(=O)CO)CC1)n2C` [Example 56, 6-ethyl-N-[1-(hydroxyacetyl)piperidin-4-yl]-1-methyl-5-[(1,3-thiazol-4-ylcarbonyl)amino]-3-(2,2,2-trifluoroethoxy)-1H-pyrrolo[2,3-b]pyridine-2-carboxamide]: 97%.
In the case of `Cc1nc2c(cc1NC(=O)c1ccccc1)c(OCC(F)(F)F)c(C(=O)NC1CCN(C(=O)CO)CC1)n2C` [Example 47, N-[1-(hydroxyacetyl)piperidin-4-yl]-1,6-dimethyl-5-[(phenylcarbonyl)amino]-3-(2,2,2-trifluoroethoxy)-1H-pyrrolo[2,3-b]pyridine-2-carboxamide], the inhibition at 1 µM amounted to 97%.
Regarding `CCc1cc2c(cc1NC(=O)c1ccsc1)c(OC(C)C)c(C(=O)NC1CCN(C(=O)CO)CC1)n2C` [Example 148, 6-ethyl-N-[1-(hydroxyacetyl)piperidin-4-yl]-1-methyl-3-(1-methylethoxy)-5-[(thiophen-3-ylcarbonyl)amino]-1H-indole-2-carboxamide], the inhibition at 1 µM worked out at 98%.
